These are literature values, as cited in patent publication US20250207102A1, “METHODS FOR CO-CULTURING GENOTOXIC BACTERIA AND ORGANOIDS” (priority 2022, published 2025).

Take `Cc1cccc(-c2nn(C(=S)Nc3ccccc3)cc2-c2ccnc3ccccc23)n1` [A83-01]: the “phosphorylation of Smad2” value with Smad2 is on record as “blocks phosphorylation of Smad2”. The “inhibition of ALK-1,-2,-3,-6 and MAPK activity” value with ALK-1,-2,-3,-6 and MAPK is reported as “only weakly inhibits”.
